# According to ChEMBL document CHEMBL4417631, “Oral peptide inhibitors of interleukin-23 receptor and their use to treat inflammatory bowel diseases” (2017):
# pIC50: −log10 of the molar value. Where a SMILES comes first, the peptide text is derived from it.
# Molecular target: T1, Interleukin-23 receptor (Homo sapiens, UniProt Q5VWK5)
# T1 sequence (Q5VWK5 whole entry): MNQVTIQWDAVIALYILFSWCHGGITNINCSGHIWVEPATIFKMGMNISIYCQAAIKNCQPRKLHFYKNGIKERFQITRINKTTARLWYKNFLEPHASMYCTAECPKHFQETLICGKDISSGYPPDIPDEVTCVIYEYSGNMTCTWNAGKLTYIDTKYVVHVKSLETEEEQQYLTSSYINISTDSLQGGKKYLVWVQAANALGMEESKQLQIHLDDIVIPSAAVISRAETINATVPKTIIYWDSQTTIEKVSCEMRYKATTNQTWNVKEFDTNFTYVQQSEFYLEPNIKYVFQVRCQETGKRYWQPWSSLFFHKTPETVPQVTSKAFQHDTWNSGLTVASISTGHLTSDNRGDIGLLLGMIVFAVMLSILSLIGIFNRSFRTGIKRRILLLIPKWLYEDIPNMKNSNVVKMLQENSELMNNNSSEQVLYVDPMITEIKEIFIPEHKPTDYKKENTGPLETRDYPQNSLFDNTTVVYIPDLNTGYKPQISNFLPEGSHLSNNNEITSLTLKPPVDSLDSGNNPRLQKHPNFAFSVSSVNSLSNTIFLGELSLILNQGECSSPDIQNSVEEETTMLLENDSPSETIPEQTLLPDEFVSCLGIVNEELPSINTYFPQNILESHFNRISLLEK
# Test: Inhibition of interleukin-23 binding to human interleukin-23 receptor incubated for 2 hrs by competitive binding ELISA
row,pIC50,SMILES
1,5.22,CC(=O)N[C@@H](CS)C(=O)N[C@@H](CCC(N)=O)C(=O)N[C@H](C(=O)N[C@@H](Cc1c[nH]c2ccccc12)C(=O)N[C@@H](CCC(N)=O)C(=O)N[C@@H](CS)C(=O)N[C@@H](Cc1ccc(O)cc1)C(=O)N[C@@](C)(Cc1c[nH]c2ccccc12)C(=O)N[C@@H](CCCNC(N)=O)C(=O)N[C@@H](CCC(C)C)C(=O)N[C@@H](CC(N)=O)C(=O)NCC(=O)NCCC(=O)N[C@H](CCCCN)C(N)=O)[C@@H](C)O
2,7.00 to 7.60,CC(=O)N[C@@H](CS)C(=O)N[C@@H](C)C(=O)N[C@@H](CC(=O)O)C(=O)N[C@@H](Cc1c[nH]c2ccccc12)C(=O)N[C@H](C(=O)N[C@@H](CS)C(=O)N[C@@H](Cc1ccc(O)cc1)C(=O)N[C@@H](Cc1c[nH]c2ccccc12)C(=O)N[C@@H](Cc1cnc[nH]1)C(=O)N[C@H](C(=O)N[C@@H](Cc1ccccc1)C(=O)NCC(=O)NCCC(=O)N[C@H](CCCCNC(=O)COCC(=O)NCCCC[C@@H](NC(=O)CCNC(=O)CNC(=O)[C@H](Cc1ccccc1)NC(=O)[C@@H](NC(=O)[C@H](Cc1cnc[nH]1)NC(=O)[C@H](Cc1c[nH]c2ccccc12)NC(=O)[C@H](Cc1ccc(O)cc1)NC(=O)[C@H](CS)NC(=O)[C@@H](NC(=O)[C@H](Cc1c[nH]c2ccccc12)NC(=O)[C@H](CC(=O)O)NC(=O)[C@H](C)NC(=O)[C@H](CS)NC(C)=O)C(C)C)[C@@H](C)O)C(=O)O)C(=O)O)[C@@H](C)O)C(C)C
3,6.00 to 6.30,CC(C)[C@H](NC(=O)[C@H](Cc1cnc[nH]1)NC(=O)[C@H](Cc1c[nH]c2ccccc12)NC(=O)[C@H](Cc1ccc(O)cc1)NC(=O)[C@H](CS)NC(=O)[C@@H](NC(=O)[C@H](Cc1c[nH]c2ccccc12)NC(=O)[C@@H](NC(=O)[C@H](CCCNC(=N)N)NC(=O)[C@@H](N)CS)[C@@H](C)O)[C@@H](C)O)C(=O)N[C@@H](Cc1ccc(O)cc1)C(=O)NCC(N)=O (H-CRTWTCYWHVYG-NH2)
4,6.00 to 6.30,CC(=O)N[C@@H](CS)C(=O)N[C@@H](C)C(=O)N[C@@H](CC(=O)O)C(=O)N[C@@H](Cc1c[nH]c2ccccc12)C(=O)N[C@H](C(=O)N[C@@H](CS)C(=O)N[C@@H](Cc1ccc(O)cc1)C(=O)N[C@@H](Cc1c[nH]c2ccccc12)C(=O)N[C@@H](Cc1cnc[nH]1)C(=O)N[C@@H](CCC(=O)O)C(=O)N[C@@H](Cc1cnc[nH]1)C(=O)N[C@@H](CO)C(=O)N[C@@H](CCC(=O)O)C(=O)N[C@@H](CCCNC(=N)N)C(=O)N[C@H](C(=O)NCC(N)=O)C(C)C)C(C)C (Ac-CADWVCYWHEHSERVG-NH2)
5,< 5.00,CC(=O)N[C@@H](CS)C(=O)N[C@@H](C)C(=O)N[C@@H](CC(=O)O)C(=O)N[C@@H](Cc1c[nH]c2ccccc12)C(=O)N[C@H](C(=O)N[C@@H](CS)C(=O)N[C@@H](Cc1ccc(O)cc1)C(=O)N[C@@H](Cc1c[nH]c2ccccc12)C(=O)N[C@@H](Cc1cnc[nH]1)C(=O)N[C@@H](CCCCNC(=O)COCC(=O)NCCCC[C@H](NC(=O)[C@H](Cc1cnc[nH]1)NC(=O)[C@H](Cc1c[nH]c2ccccc12)NC(=O)[C@H](Cc1ccc(O)cc1)NC(=O)[C@H](CS)NC(=O)[C@@H](NC(=O)[C@H](Cc1c[nH]c2ccccc12)NC(=O)[C@H](CC(=O)O)NC(=O)[C@H](C)NC(=O)[C@H](CS)NC(C)=O)C(C)C)C(=O)N[C@@H](Cc1ccccc1)C(=O)NCC(=O)O)C(=O)N[C@@H](Cc1ccccc1)C(=O)NCC(=O)O)C(C)C
6,> 6.30,CC(=O)N[C@@H](CS)C(=O)N[C@@H](CCC(N)=O)C(=O)N[C@H](C(=O)N[C@@H](Cc1c[nH]c2ccccc12)C(=O)N[C@@H](CCC(N)=O)C(=O)N[C@@H](CS)C(=O)N[C@@H](Cc1ccc(O)cc1)C(=O)N[C@@H](Cc1c[nH]c2ccccc12)C(=O)N[C@@H](CCCNC(=N)N)C(=O)N[C@@H](CCCN)C(=O)N[C@@H](CC(N)=O)C(=O)NCC(=O)NCCOCC(=O)N[C@H](CCCCN)C(N)=O)[C@@H](C)O
7,< 6.00,CC(=O)N[C@@H](CS)C(=O)N[C@@H](CCC(N)=O)C(=O)N[C@H](C(=O)N[C@@H](Cc1c[nH]c2ccccc12)C(=O)N[C@@H](CCC(N)=O)C(=O)N[C@@H](CS)C(=O)N[C@@H](Cc1ccc(O)cc1)C(=O)N[C@@H](Cc1c[nH]c2ccccc12)C(=O)N[C@@H](CCCNC(=N)N)C(=O)N(C)CC(=O)N[C@@H](CC(N)=O)C(=O)NCC(=O)NCCOCC(=O)N[C@H](CCCCN)C(N)=O)[C@@H](C)O
8,< 6.00,CC(C)[C@H](NC(=O)[C@H](Cc1cnc[nH]1)NC(=O)[C@H](Cc1c[nH]c2ccccc12)NC(=O)[C@H](Cc1ccc(O)cc1)NC(=O)[C@H](CS)NC(=O)[C@H](CCCNC(=N)N)NC(=O)[C@H](Cc1c[nH]c2ccccc12)NC(=O)[C@H](CC(=O)O)NC(=O)[C@H](CO)NC(=O)[C@@H](N)CS)C(=O)N[C@@H](Cc1ccccc1)C(=O)NCC(N)=O (H-CSDWRCYWHVFG-NH2)
9,4.52,CC(=O)N[C@@H](CS)C(=O)N[C@@H](CCC(N)=O)C(=O)N[C@H](C(=O)N[C@@H](Cc1c[nH]c2ccccc12)C(=O)N[C@@H](CCC(N)=O)C(=O)N[C@@H](CS)C(=O)N[C@@H](Cc1ccc(O)cc1)C(=O)N[C@@](C)(Cc1ccccc1)C(=O)N[C@@H](CCC(C)C)C(=O)N[C@@H](CCC(=O)O)C(=O)N[C@@H](CC(N)=O)C(=O)NCC(N)=O)[C@@H](C)O
10,6.00 to 6.30,CC(=O)N[C@@H](CS)C(=O)N[C@@H](C)C(=O)N[C@@H](CC(=O)O)C(=O)N[C@@H](Cc1c[nH]c2ccccc12)C(=O)N[C@H](C(=O)N[C@@H](CS)C(=O)N[C@@H](Cc1ccc(O)cc1)C(=O)N[C@@H](Cc1c[nH]c2ccccc12)C(=O)N[C@@H](Cc1cnc[nH]1)C(=O)N[C@@H](CC(N)=O)C(=O)N[C@@H](Cc1cnc[nH]1)C(=O)N[C@@H](CO)C(=O)N[C@@H](CCC(=O)O)C(=O)NCC(=O)N[C@@H](CO)C(=O)NCC(N)=O)C(C)C (Ac-CADWVCYWHNHSEGSG-NH2)
11,> 6.30,CC(=O)N[C@@H](CS)C(=O)N[C@@H](C)C(=O)N[C@H](C(=O)N[C@@H](Cc1c[nH]c2ccccc12)C(=O)N[C@@H](CCC(N)=O)C(=O)N[C@@H](CS)C(=O)N[C@@H](Cc1ccc(O)cc1)C(=O)N[C@@H](Cc1c[nH]c2ccccc12)C(=O)N[C@@H](Cc1cnc[nH]1)C(=O)N[C@@H](CCC(=O)O)C(=O)N[C@@H](Cc1ccc(O)cc1)C(=O)NCC(N)=O)[C@@H](C)O (Ac-CATWQCYWHEYG-NH2)
12,< 6.00,CC(=O)N[C@@H](CS)C(=O)N[C@@H](C)C(=O)N[C@@H](CC(=O)O)C(=O)N[C@@H](Cc1c[nH]c2ccccc12)C(=O)N[C@H](C(=O)N[C@@H](CS)C(=O)N[C@@H](Cc1ccc(O)cc1)C(=O)N[C@@H](Cc1cccc2ccccc12)C(=O)N[C@@H](Cc1cnc[nH]1)C(=O)NC(C)(C)C(=O)N[C@@H](Cc1ccccc1)C(=O)NCC(N)=O)C(C)C
13,< 5.52,CC(=O)N[C@@H](CS)C(=O)N[C@@H](C)C(=O)N[C@@H](CC(=O)O)C(=O)N[C@@H](Cc1c[nH]c2ccccc12)C(=O)N[C@H](C(=O)N[C@@H](CS)C(=O)N[C@@H](Cc1ccc(O)cc1)C(=O)N[C@H](C(=O)N[C@@H](CCCN)C(=O)N[C@@H](CN)C(=O)N[C@@H](Cc1ccccc1)C(=O)NCC(=O)NCCOCC(=O)N[C@H](CCCCN)C(N)=O)C1CCC(c2ccccc2)CC1)C(C)C (stereo partly drawn)
14,> 6.30,CC(=O)N[C@@H](CS)C(=O)N[C@H](C(=O)N[C@@H](CC(=O)O)C(=O)N[C@@H](Cc1c[nH]c2ccccc12)C(=O)N[C@H](C(=O)N[C@@H](CS)C(=O)N[C@@H](Cc1ccc(O)cc1)C(=O)N[C@@H](Cc1c[nH]c2ccccc12)C(=O)N[C@@H](Cc1cnc[nH]1)C(=O)N[C@H](C(=O)N[C@@H](Cc1ccccc1)C(=O)NCC(N)=O)[C@@H](C)O)C(C)C)[C@@H](C)O
15,6.00 to 7.00,CC(=O)NC1CC/C=C\CC(C(=O)N[C@@H](Cc2ccc(O)cc2)C(=O)N[C@@H](Cc2c[nH]c3ccccc23)C(=O)N[C@@H](CCCNC(=N)N)C(=O)N[C@@H](CCCCN)C(=O)N[C@@H](Cc2ccccc2)C(=O)NCC(=O)NCCOCC(=O)N[C@H](CCCCN)C(N)=O)NC(=O)[C@H](CCC(N)=O)NC(=O)[C@H](Cc2c[nH]c3ccccc23)NC(=O)[C@H]([C@@H](C)O)NC(=O)[C@H](CCCNC(=N)N)NC1=O (stereo partly drawn)
16,6.00 to 7.00,CC(=O)NCCCC[C@H](NC(=O)[C@](C)(CCCCN)NC(=O)[C@H](Cc1ccc2ccccc2c1)NC(=O)[C@H](Cc1ccc(N)cc1)NC(=O)[C@@H](NC(=O)[C@H](CCC(N)=O)NC(=O)[C@H](Cc1c[nH]c2ccccc12)NC(=O)[C@@H](NC(=O)[C@H](CCC(N)=O)NC(=O)[C@@H](NC(C)=O)C(C)(C)S)[C@@H](C)O)C(C)(C)S)C(=O)N[C@@H](CC(N)=O)C(=O)NCC(N)=O
17,< 4.52,CC(=O)NCC(=O)N[C@H](CC(N)=O)C(=O)N[C@H](CCC(=O)O)C(=O)N[C@H](CC(C)C)C(=O)N[C@H](Cc1c[nH]c2ccccc12)C(=O)N[C@H](Cc1ccc(O)cc1)C(=O)N[C@H](CS)C(=O)N[C@H](CCC(N)=O)C(=O)N[C@H](Cc1c[nH]c2ccccc12)C(=O)N[C@@H](C(=O)N[C@H](CCC(N)=O)C(=O)N[C@H](CS)C(N)=O)[C@H](C)O
18,< 6.00,CC(=O)N[C@@H](CS)C(=O)N[C@@H](C)C(=O)N[C@H](C(=O)N[C@@H](Cc1c[nH]c2ccccc12)C(=O)N[C@H](C(=O)N[C@@H](CS)C(=O)N[C@@H](Cc1ccc(O)cc1)C(=O)N[C@@H](Cc1c[nH]c2ccccc12)C(=O)N[C@@H](Cc1cnc[nH]1)C(=O)N[C@H](C(=O)N[C@@H](Cc1ccccc1)C(=O)NCC(N)=O)[C@@H](C)O)C(C)C)[C@@H](C)O
